Data taken from PubChem BioAssay (NCI).
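Where inhibition never reached the appropriate level, the endpoint shown equals the highest concentration tested. Otherwise, values were interpolated linearly from a five-concentration, 48-hour dose response in 96-well plates. GI50 is the concentration that inhibits growth by half. TGI denotes the concentration required for complete inhibition of growth.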

Key:
Assay in all cases: inhibition of tumour cell growth, NCI panel, 48 h
786-0 renal = tested on: 786-0 renal
A549 NSCLC = tested on: A549 NSCLC
ACHN renal = tested on: ACHN renal
CAKI-1 renal = tested on: CAKI-1 renal
CCRF-CEM leukemia = tested on: CCRF-CEM leukemia
COLO 205 colon = tested on: COLO 205 colon
DLD-1 colon = tested on: DLD-1 colon
DMS 114 small cell lung = tested on: DMS 114 small cell lung
DMS 273 small cell lung = tested on: DMS 273 small cell lung
EKVX NSCLC = tested on: EKVX NSCLC
HCC-2998 colon = tested on: HCC-2998 colon
HCT-116 colon = tested on: HCT-116 colon
HCT-15 colon = tested on: HCT-15 colon
HL-60(TB) leukemia = tested on: HL-60(TB) leukemia
HOP-18 NSCLC = tested on: HOP-18 NSCLC
HOP-62 NSCLC = tested on: HOP-62 NSCLC
HOP-92 NSCLC = tested on: HOP-92 NSCLC
HT29 colon = tested on: HT29 colon
IGROV1 ovarian = tested on: IGROV1 ovarian
K-562 leukemia = tested on: K-562 leukemia
KM12 colon = tested on: KM12 colon
KM20L2 colon = tested on: KM20L2 colon
LOX IMVI melanoma = tested on: LOX IMVI melanoma
LXFL 529 NSCLC = tested on: LXFL 529 NSCLC
M14 melanoma = tested on: M14 melanoma
M19-MEL melanoma = tested on: M19-MEL melanoma
MALME-3M melanoma = tested on: MALME-3M melanoma
MOLT-4 leukemia = tested on: MOLT-4 leukemia
NCI-H226 lung = tested on: NCI-H226 lung
NCI-H23 lung = tested on: NCI-H23 lung
NCI-H460 lung = tested on: NCI-H460 lung
NCI-H522 lung = tested on: NCI-H522 lung
OVCAR-3 ovarian = tested on: OVCAR-3 ovarian
OVCAR-4 ovarian = tested on: OVCAR-4 ovarian
OVCAR-5 ovarian = tested on: OVCAR-5 ovarian
OVCAR-8 ovarian = tested on: OVCAR-8 ovarian
RPMI-8226 leukemia = tested on: RPMI-8226 leukemia
RXF 393 renal = tested on: RXF 393 renal
RXF-631 renal = tested on: RXF-631 renal
SF-268 CNS = tested on: SF-268 CNS
SF-295 CNS = tested on: SF-295 CNS
SF-539 CNS = tested on: SF-539 CNS
SK-MEL-2 melanoma = tested on: SK-MEL-2 melanoma
SK-MEL-28 melanoma = tested on: SK-MEL-28 melanoma
SK-MEL-5 melanoma = tested on: SK-MEL-5 melanoma
SK-OV-3 ovarian = tested on: SK-OV-3 ovarian
SN12C renal = tested on: SN12C renal
SNB-19 CNS = tested on: SNB-19 CNS
SNB-75 CNS = tested on: SNB-75 CNS
SNB-78 CNS = tested on: SNB-78 CNS
SW-620 colon = tested on: SW-620 colon
TK-10 renal = tested on: TK-10 renal
U251 CNS = tested on: U251 CNS
UACC-257 melanoma = tested on: UACC-257 melanoma
UACC-62 melanoma = tested on: UACC-62 melanoma
UO-31 renal = tested on: UO-31 renal
XF 498 CNS = tested on: XF 498 CNS
A498 renal = tested on: A498 renal
SR leukemia = tested on: SR leukemia

With C[PH+](C)C.C[PH+](C)C.[Au] the TGI (786-0 renal) was 10.9 µM, the TGI (A549 NSCLC) was over 100 µM and the TGI (ACHN renal) was over 68.4 µM. For the same compound, the TGI (CAKI-1 renal) was 32.8 µM, the TGI (CCRF-CEM leukemia) was 4.98 µM and the TGI (COLO 205 colon) was over 34.2 µM. The TGI (DLD-1 colon) was 11.2 µM, the TGI (DMS 114 small cell lung) was 15.6 µM and the TGI (DMS 273 small cell lung) was 68.7 µM. It also gave a TGI (EKVX NSCLC) of 12.3 µM, a TGI (HCC-2998 colon) of over 60.6 µM and a TGI (HCT-116 colon) of 27.7 µM. The TGI (HCT-15 colon) was 6.21 µM, the TGI (HL-60(TB) leukemia) was 2.51 µM and the TGI (HOP-18 NSCLC) was 10.4 µM. It also gave a TGI (HOP-62 NSCLC) of 98 µM, a TGI (HOP-92 NSCLC) of 6.58 µM and a TGI (HT29 colon) of 20.8 µM. The TGI (IGROV1 ovarian) was 35.7 µM, the TGI (K-562 leukemia) was 10.6 µM and the TGI (KM12 colon) was 41.9 µM. The TGI (KM20L2 colon) was 47.8 µM, the TGI (LOX IMVI melanoma) was 18 µM and the TGI (LXFL 529 NSCLC) was 3.48 µM. For the same compound, the TGI (M14 melanoma) was 7.45 µM, the TGI (M19-MEL melanoma) was 28.1 µM and the TGI (MALME-3M melanoma) was 4.02 µM. The TGI (MOLT-4 leukemia) was 13.9 µM, the TGI (NCI-H226 lung) was 34.4 µM and the TGI (NCI-H23 lung) was 11.2 µM. The TGI (NCI-H460 lung) was over 100 µM, the GI50 (NCI-H522 lung) was 0.247 µM and the TGI (NCI-H522 lung) was 0.771 µM. The TGI (OVCAR-3 ovarian) was 15.7 µM, the TGI (OVCAR-4 ovarian) was 24.5 µM and the TGI (OVCAR-5 ovarian) was 24.9 µM. The TGI (OVCAR-8 ovarian) was 19 µM, the TGI (RPMI-8226 leukemia) was 10.1 µM and the TGI (RXF 393 renal) was 2.89 µM. It also gave a TGI (RXF-631 renal) of 13.1 µM, a TGI (SF-268 CNS) of 15.2 µM and a TGI (SF-295 CNS) of over 56.7 µM. For the same compound, the TGI (SF-539 CNS) was 24.6 µM, the TGI (SK-MEL-2 melanoma) was 13.6 µM and the TGI (SK-MEL-28 melanoma) was 8.29 µM. It also gave a TGI (SK-MEL-5 melanoma) of 13.4 µM, a TGI (SK-OV-3 ovarian) of over 90.2 µM and a TGI (SN12C renal) of 25.4 µM. It also gave a TGI (SNB-19 CNS) of 21.2 µM, a TGI (SNB-75 CNS) of 30.1 µM and a TGI (SNB-78 CNS) of 52.6 µM. It also gave a TGI (SW-620 colon) of 9.22 µM, a TGI (TK-10 renal) of 35.4 µM and a TGI (U251 CNS) of 15.2 µM. For the same compound, the TGI (UACC-257 melanoma) was 29.3 µM, the TGI (UACC-62 melanoma) was 18.2 µM and the TGI (UO-31 renal) was 54.8 µM. It also gave a TGI (XF 498 CNS) of 7.8 µM.
For CCOC(=O)C1N(S(=O)(=O)c2ccc(C)cc2)CCC12C(c1ccc(OC)c(OC)c1)=Nc1ccccc12 (stereo unspecified), the TGI (786-0 renal) was over 100 µM, the TGI (A498 renal) was over 100 µM and the TGI (A549 NSCLC) was over 100 µM. The TGI (ACHN renal) was over 100 µM, the TGI (CAKI-1 renal) was over 100 µM and the TGI (CCRF-CEM leukemia) was over 100 µM. For the same compound, the TGI (COLO 205 colon) was over 100 µM, the TGI (DLD-1 colon) was over 100 µM and the TGI (DMS 114 small cell lung) was over 100 µM. For the same compound, the TGI (DMS 273 small cell lung) was over 100 µM, the TGI (EKVX NSCLC) was over 100 µM and the TGI (HCC-2998 colon) was over 100 µM. It also gave a TGI (HCT-116 colon) of over 100 µM, a TGI (HL-60(TB) leukemia) of over 100 µM and a TGI (HOP-18 NSCLC) of over 100 µM. It also gave a TGI (HOP-62 NSCLC) of over 100 µM, a TGI (HOP-92 NSCLC) of over 100 µM and a TGI (HT29 colon) of over 100 µM. For the same compound, the TGI (IGROV1 ovarian) was over 100 µM, the TGI (K-562 leukemia) was over 100 µM and the TGI (KM12 colon) was over 100 µM. It also gave a TGI (KM20L2 colon) of over 100 µM, a TGI (LOX IMVI melanoma) of over 100 µM and a TGI (LXFL 529 NSCLC) of over 100 µM. It also gave a TGI (M14 melanoma) of over 100 µM, a TGI (M19-MEL melanoma) of over 100 µM and a TGI (MALME-3M melanoma) of over 100 µM. The TGI (NCI-H226 lung) was over 100 µM, the TGI (NCI-H23 lung) was over 100 µM and the TGI (NCI-H460 lung) was over 100 µM. It also gave a TGI (NCI-H522 lung) of over 100 µM, a TGI (OVCAR-3 ovarian) of over 100 µM and a TGI (OVCAR-4 ovarian) of over 100 µM. It also gave a TGI (OVCAR-5 ovarian) of over 100 µM, a TGI (OVCAR-8 ovarian) of over 100 µM and a TGI (RPMI-8226 leukemia) of over 100 µM. It also gave a TGI (RXF 393 renal) of over 100 µM, a TGI (RXF-631 renal) of over 100 µM and a TGI (SF-268 CNS) of over 100 µM. The TGI (SF-295 CNS) was over 100 µM, the TGI (SF-539 CNS) was over 100 µM and the TGI (SK-MEL-28 melanoma) was over 100 µM. It also gave a TGI (SK-MEL-5 melanoma) of over 100 µM, a TGI (SK-OV-3 ovarian) of over 100 µM and a TGI (SN12C renal) of over 100 µM. It also gave a TGI (SNB-19 CNS) of over 100 µM, a TGI (SNB-75 CNS) of over 100 µM and a TGI (SNB-78 CNS) of over 100 µM. The TGI (SW-620 colon) was over 100 µM, the TGI (TK-10 renal) was over 100 µM and the TGI (U251 CNS) was over 100 µM. For the same compound, the TGI (UACC-257 melanoma) was over 100 µM, the TGI (UACC-62 melanoma) was over 100 µM and the TGI (UO-31 renal) was over 100 µM. For the same compound, the TGI (XF 498 CNS) was over 100 µM.
In the case of O=C(/C=C/c1ccccc1O)C(c1ccccc1)c1ccccc1, the TGI (786-0 renal) is reported as over 100 µM, the TGI (A498 renal) is reported as over 100 µM and the TGI (A549 NSCLC) is reported as over 100 µM. It also gave a TGI (ACHN renal) of over 100 µM, a TGI (CAKI-1 renal) of over 100 µM and a TGI (CCRF-CEM leukemia) of over 100 µM. It also gave a TGI (COLO 205 colon) of over 100 µM, a TGI (DLD-1 colon) of over 100 µM and a TGI (DMS 114 small cell lung) of over 100 µM. The TGI (DMS 273 small cell lung) was over 100 µM, the TGI (EKVX NSCLC) was over 100 µM and the TGI (HCC-2998 colon) was over 100 µM. It also gave a TGI (HCT-116 colon) of over 100 µM, a TGI (HCT-15 colon) of over 100 µM and a TGI (HOP-18 NSCLC) of over 100 µM. For the same compound, the TGI (HOP-62 NSCLC) was over 100 µM, the TGI (HOP-92 NSCLC) was over 100 µM and the TGI (HT29 colon) was over 100 µM. For the same compound, the TGI (IGROV1 ovarian) was over 100 µM, the TGI (K-562 leukemia) was over 100 µM and the TGI (KM12 colon) was over 100 µM. It also gave a TGI (KM20L2 colon) of over 100 µM, a TGI (LOX IMVI melanoma) of 62.3 µM and a TGI (LXFL 529 NSCLC) of over 100 µM. For the same compound, the TGI (M14 melanoma) was over 100 µM, the TGI (M19-MEL melanoma) was over 100 µM and the TGI (MALME-3M melanoma) was over 100 µM. For the same compound, the TGI (MOLT-4 leukemia) was over 100 µM, the TGI (NCI-H226 lung) was over 100 µM and the TGI (NCI-H23 lung) was over 100 µM. The TGI (NCI-H460 lung) was over 100 µM, the TGI (NCI-H522 lung) was over 100 µM and the TGI (OVCAR-3 ovarian) was over 100 µM. The TGI (OVCAR-4 ovarian) was over 100 µM, the TGI (OVCAR-5 ovarian) was over 100 µM and the TGI (OVCAR-8 ovarian) was over 100 µM. It also gave a TGI (RPMI-8226 leukemia) of over 100 µM, a TGI (RXF 393 renal) of over 100 µM and a TGI (RXF-631 renal) of over 100 µM. The TGI (SF-268 CNS) was over 100 µM, the TGI (SF-295 CNS) was over 100 µM and the TGI (SF-539 CNS) was over 100 µM. For the same compound, the TGI (SK-MEL-2 melanoma) was over 100 µM, the TGI (SK-MEL-28 melanoma) was over 100 µM and the TGI (SK-MEL-5 melanoma) was over 100 µM. For the same compound, the TGI (SK-OV-3 ovarian) was over 100 µM, the TGI (SN12C renal) was over 100 µM and the TGI (SNB-19 CNS) was over 100 µM. It also gave a TGI (SNB-75 CNS) of 75.1 µM, a TGI (SNB-78 CNS) of over 100 µM and a TGI (SR leukemia) of over 100 µM. For the same compound, the TGI (SW-620 colon) was 27.6 µM, the TGI (TK-10 renal) was over 100 µM and the TGI (U251 CNS) was over 100 µM. The TGI (UACC-257 melanoma) was over 100 µM, the TGI (UACC-62 melanoma) was over 100 µM and the TGI (UO-31 renal) was over 100 µM. For the same compound, the TGI (XF 498 CNS) was over 100 µM.
